The source made the active and inactive calls. The rule behind the calls is not given here.
Tests used:
[1] = Toxicity in NSG mouse xenografted with human FaDu cells assessed as body weight gain at 30 mg/kg, ip qd treated for 20 days; format: organism-based; conditions: in vivo, 480 h, time 20 day
[2] = Half life in rat liver microsomes; format: ADME, Microsome
[3] = Stability in rat hepatocytes assessed as half life; format: ADME, cell-based, Hepatocyte
Kasumi 1 [4] = experiment: Antiproliferative activity against human Kasumi 1 cells assessed as inhibition of cell viability incubated for 72 hrs by ATPlite assay; format: functional, cell-based; conditions: Kasumi 1, 72 h
FaDu = experiment: Antitumor activity against human FaDu cells xenografted in NSG mouse assessed as prolongation of animal survival at 30 mg/kg, ip qd treated for 20 days; format: functional, organism-based; conditions: time 20.0 day
[5] = Unbound fraction in Sprague-Dawley rat plasma at 1 mg/kg/day, iv measured for 24 hrs by LC-MS/MS analysis; format: ADME, organism-based; conditions: in vivo
Kasumi 1 [6] = experiment: Induction of apoptosis in human Kasumi 1 cells incubated for 48 hrs by Caspase-Glo 3/7 assay; format: functional, cell-based
A549 [7] = experiment: Antitumor activity against human A549 cells xenografted in NSG mouse assessed as tumor growth inhibition at 30 mg/kg, ip qd treated for 50 days by bioluminescence imaging analysis; format: functional, organism-based; conditions: time 50.0 day
A549 [8] = experiment: Antiproliferative activity against human A549 cells assessed as inhibition of cell viability incubated for 72 hrs by ATPlite assay; format: functional, cell-based; conditions: A549, 72 h
MV4-11 = experiment: Antitumor activity against human MV4-11 cells expressing Luc-mCh-Puro xenografted in NSG mouse assessed as decrease in hCD45+ cells in bone marrow at 30 mg/kg, ip qd measured after 28 days by flow cytometry; format: functional, organism-based; conditions: time 28.0 day
SK-OV-3 = experiment: Antitumor activity against human SK-OV-3 cells xenografted in NSG mouse assessed as prolongation of animal survival at 30 mg/kg, ip qd treated for 83 days; format: functional, organism-based; conditions: time 83.0 day
Calu-6 = experiment: Antiproliferative activity against human Calu-6 cells assessed as inhibition of cell viability incubated for 72 hrs by ATPlite assay; format: functional, cell-based; conditions: Calu-6, 72 h
Cytochrome P450 1A2 = biological target: T1, Cytochrome P450 1A2 (Homo sapiens, UniProt P05177); experiment: Inhibition of CYP1A2 (unknown origin); format: ADME
T1 sequence (P05177 whole entry): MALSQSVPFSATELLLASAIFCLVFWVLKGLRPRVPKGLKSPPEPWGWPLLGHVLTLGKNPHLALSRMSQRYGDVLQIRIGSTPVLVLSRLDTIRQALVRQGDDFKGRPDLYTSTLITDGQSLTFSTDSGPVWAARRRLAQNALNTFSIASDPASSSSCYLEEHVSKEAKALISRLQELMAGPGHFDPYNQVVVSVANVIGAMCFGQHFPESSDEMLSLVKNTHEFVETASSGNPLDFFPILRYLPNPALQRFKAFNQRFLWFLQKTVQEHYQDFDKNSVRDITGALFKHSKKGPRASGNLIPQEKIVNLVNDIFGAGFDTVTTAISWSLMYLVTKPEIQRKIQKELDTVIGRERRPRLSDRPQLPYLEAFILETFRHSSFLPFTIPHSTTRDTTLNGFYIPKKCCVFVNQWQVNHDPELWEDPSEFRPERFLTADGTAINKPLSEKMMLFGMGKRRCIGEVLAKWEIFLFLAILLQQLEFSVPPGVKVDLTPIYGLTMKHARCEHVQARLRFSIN

[9] = Unbound clearance in Sprague-Dawley rat at 1 mg/kg/day, iv measured for 24 hrs by LC-MS/MS analysis; format: ADME, organism-based; conditions: in vivo

SMILES: C[C@@H](n1cc(-c2cncc(N(C)C)c2)nn1)n1ccc(N2CCC[C@@H](NCC3CC3)C2)cc1=O
- Activity [1]: Non-toxic
- half-life [2]: 91.3 min
- half-life [3]: > 240 min
- IC50 (Kasumi 1 [4]): 37 nM
- Activity (FaDu): Active
- Fu [5]: 23%
- Activity (Kasumi 1 [6]): Active
- inhibition (A549 [7]): Active
- IC50 (A549 [8]): 169 nM
- Activity (MV4-11): Active
- Activity (SK-OV-3): Active
- IC50 (Calu-6): 18 nM
- IC50 (Cytochrome P450 1A2): > 100 µM
- CL free [9]: 358 mL/min/kg

From ChEMBL document CHEMBL6121062, “Discovery, Optimization, and Preclinical Pharmacology of EP652, a METTL3 Inhibitor with Efficacy in Liquid and Solid Tumor Models” (J Med Chem, 2025)
